In patent US9868720B2 (Genentech, Inc., priority 2013, dated 2018):

These compounds were tested against DLK kinase (N-terminally GST-tagged DLK, catalytic domain amino acid 1-520) (Homo sapiens (Human), UniProt Q12852) (assay: DLK TR-FRET assay). Conditions: 30 μM ATP, MKK4 K131M substrate, read-out: DLK HTRF (Ki).
Assay type: biochemical
Protocol: DLK TR-FRET assay: DLK kinase reactions (20 μL) containing 5 nM N-terminally GST-tagged DLK (catalytic domain amino acid 1-520) (Carna Bioscience), 40 nM N-terminally HIS-tagged MKK4 K131M substrate, and 30 μM ATP in kinase reaction buffer (50 mM HEPES, pH 7.5, 0.01% Triton X-100, 0.01% Bovine γ-Globulins, 2 mM DTT, 10 mM MgCl2 and 1 mM EGTA), and testing compound 1:3 serial diluted starting at 20 uM were incubated at ambient temperature for 60 minutes in 384 well OptiPlate (Perkin Elmer). To quench kinase reactions and detect phosphorylated MKK4, 15 μL of TR-FRET antibody mixture containing 2 nM anti-phosphorylated MKK4 labeled with Europium cryptate (Cisbio) and 23 nM anti-HIS labeled with D2 (Cisbio) in detection buffer (25 mM Tris pH 7.5, 100 mM NaCl, 100 mM EDTA, 0.01% Tween-20, and 200 mM KF) was added to the reaction mixture. The detection mixture was incubated for 3 hours at ambient temperature and the TR-FRET was detected with an EnVision multilabel plate reader (Perkin-Elmer) using the LANCE/DELFIA Dual Enh label from Perkin-Elmer (excitation filter: UV2 (TRF) 320 and emission filters: APC 665 and Europium 615).

DLK kinase (N-terminally GST-tagged DLK, catalytic domain amino acid 1-520), sequence (Q12852 1-520): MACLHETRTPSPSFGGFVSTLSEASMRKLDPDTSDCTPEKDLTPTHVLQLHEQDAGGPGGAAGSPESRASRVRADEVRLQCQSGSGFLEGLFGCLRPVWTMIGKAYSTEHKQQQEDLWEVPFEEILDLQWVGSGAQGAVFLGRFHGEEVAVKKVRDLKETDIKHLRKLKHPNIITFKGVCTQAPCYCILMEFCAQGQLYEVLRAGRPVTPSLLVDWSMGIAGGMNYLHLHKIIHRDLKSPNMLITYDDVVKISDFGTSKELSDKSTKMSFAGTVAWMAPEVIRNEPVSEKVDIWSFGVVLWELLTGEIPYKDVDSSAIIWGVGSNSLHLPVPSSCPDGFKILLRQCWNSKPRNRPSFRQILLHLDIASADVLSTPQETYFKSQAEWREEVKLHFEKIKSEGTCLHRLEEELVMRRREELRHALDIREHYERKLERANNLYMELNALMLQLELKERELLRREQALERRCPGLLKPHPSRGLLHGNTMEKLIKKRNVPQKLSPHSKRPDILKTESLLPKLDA

| Compound | Ki [nM] |
| --- | --- |
| C[C@@H]1CC[C@@H](C)N1c1nc(Nc2cc(C(F)(F)F)ccn2)cc(C2CCNCC2)n1 [Example 143, [2-((2R,5R)-2,5-Dimethyl-pyrrolidin-1-yl)-6-piperidin-4-yl-pyrimidin-4-yl]-(4-trifluoromethyl-pyridin-2-yl)-amine] | 10.4 |
| N#CC1(c2cc(Nc3cc(C(F)(F)F)ccn3)nc(Nc3cc(C(F)(F)F)ccn3)n2)CCOCC1 [Example 208, 4-[2,6-Bis-(4-trifluoro-methyl-pyridin-2-ylamino)-pyrimidin-4-yl]-tetrahydro-pyran-4-carbonitrile] | 322 |
| C[C@@H]1CCCN1c1nc(Nc2cc(C(F)(F)F)ccn2)cc(C2(C#N)CCOCC2)n1 [Example 209, 4-[2-((R)-2-Methyl-pyrrolidin-1-yl)-6-(4-trifluoromethyl-pyridin-2-ylamino)-pyrimidin-4-yl]-tetrahydro-pyran-4-carbonitrile] | 76.8 |
| C[C@H]1CCCN1c1nc(Nc2cc(C(F)(F)F)ccn2)cc(C2CCNCC2)n1 [Example 112, [2-((S)-2-Methyl-pyrrolidin-1-yl)-6-piperidin-4-yl-pyrimidin-4-yl]-(4-trifluoromethyl-pyridin-2-yl)-amine] | 15.8 |
| FC(F)(F)c1ccnc(Nc2cc(C3CCOCC3)nc(N3CCc4nc[nH]c4C3)n2)c1 [Example 252, [2-(3,4,6,7-Tetrahydro-imidazo[4,5-c]pyridin-5-yl)-6-(tetrahydro-pyran-4-yl)-pyrimidin-4-yl]-(4-trifluoromethyl-pyridin-2-yl)-amine] | 43.5 |
| FC1(F)CN(c2nc(Nc3cc(C(F)(F)F)ccn3)cc(C3CCN(CC4CCOCC4)C3)n2)C1 (centres unmarked) [Example 307, {2-(3,3-Difluoro-azetidin-1-yl)-6-[1-(tetrahydro-pyran-4-ylmethyl)-pyrrolidin-3-yl]-pyrimidin-4-yl}-(4-trifluoromethyl-pyridin-2-yl)-amine] | 31.9 |
| FC(F)(F)c1ccnc(Nc2cc(C3CCCN(C4COC4)C3)nc(C3CCCC3)n2)c1 (centres unmarked) [Example 391, [2-Cyclopentyl-6-(1-oxetan-3-yl-piperidin-3-yl)-pyrimidin-4-yl]-(4-trifluoromethyl-pyridin-2-yl)-amine] | 9 |
| CC(C)c1nc(Nc2cc(C(F)(F)F)ccn2)cc(C2CCNC(=O)C2)n1 (centres unmarked) [Example 408, 4-[2-Isopropyl-6-(4-trifluoro-methyl-pyridin-2-ylamino)-pyrimidin-4-yl]-piperidin-2-one] | 97.8 |
| CC(C)Cc1nc(Nc2cc(C(F)(F)F)ccn2)cc(C2CCCN(C(=O)C(F)F)C2)n1 (centres unmarked) [Example 195, 2,2-Difluoro-1-{3-[2-isobutyl-6-(4-trifluoromethyl-pyridin-2-ylamino)-pyrimidin-4-yl]-piperidin-1-yl}-ethanone] | 143 |
| CC(C)c1nc(Nc2cc(C(F)(F)F)ccn2)cc(C2CN(C3COC3)C2)n1 [Example 399, [2-Isopropyl-6-(1-oxetan 3-yl-azetidin-3-yl)-pyrimidin-4-yl]-(4-trifluoromethyl-pyridin-2-yl)-amine] | 281 |

Continued, values first:

| Ki [nM] | Compound |
| --- | --- |
| 30.6 | C[C@@H]1CCCN1c1nc(Nc2cc(C(F)(F)F)ccn2)cc(C2CN(S(C)(=O)=O)C2)n1 [Example 374, [6-(1-Methanesulfonyl-azetidin-3-yl)-2-((R)-2-methyl-pyrrolidin-1-yl)-pyrimidin-4-yl]-(4-trifluoromethyl-pyridin-2-yl)-amine] |
| 1.72 | CC1CCCN1c1nc(Nc2cc(C(F)(F)F)ccn2)cc(C2CCN(C(=O)c3cn(C)cn3)C2)n1 (centres unmarked) [Example 376, (1-Methyl-1H-imidazol-4-yl)-{3-[2-(2-methyl-pyrrolidin-1-yl)-6-(4-trifluoromethyl-pyridin-2-ylamino)-pyrimidin-4-yl]-pyrrolidin-1-yl}-methanone] |
| 636 | CN1CCCC(c2cc(Nc3cc(C(F)(F)F)ccn3)nc(N3CC(N4CCOCC4)C3)n2)C1 (centres unmarked) [Example 371, [6-(1-Methyl-piperidin-3-yl)-2-(3-morpholin-4-yl-azetidin-1-yl)-pyrimidin-4-yl]-(4-trifluoromethyl-pyridin-2-yl)-amine] |
| 4.42 | CN1CCC(c2cc(Nc3cc(C(F)(F)F)ccn3)nc(N3CCC(F)(F)C3)n2)CC1 [Example 160, [2-(3,3-Difluoro-pyrrolidin-1-yl)-6-(1-methyl-piperidin-4-yl)-pyrimidin-4-yl]-(4-trifluoromethyl-pyridin-2-yl)-amine] |
| 41.5 | O=C(C1CC1)N1CCC(c2cc(Nc3cc(C(F)(F)F)ccn3)nc(N3CCC(F)(F)C3)n2)C1 (centres unmarked) [Example 184, Cyclopropyl-{3-[2-(3,3-difluoro-pyrrolidin-1-yl)-6-(4-trifluoromethyl-pyridin-2-ylamino)-pyrimidin-4-yl}-pyrrolidin-1-yl}-methanone] |
| 6.12 | CC1CCCN1c1nc(Nc2cc(C(F)(F)F)ccn2)cc(C2CCN(C)C(=O)C2)n1 (centres unmarked) [Example 332, 1-Methyl-4-[2-(2-methyl-pyrrolidin-1-yl)-6-(4-trifluoromethyl-pyridin-2-ylamino)-pyrimidin-4-yl]-piperidin-2-one] |
| 7.69 | CC1CCCN1c1nc(Nc2cc(C(F)(F)F)ccn2)cc(C2CCN(C(=O)Cn3ccnc3)C2)n1 (centres unmarked) [Example 204, 2-Imidazol-1-yl-1-{3-[2-(2-methyl-pyrrolidin-1-yl)-6-(4-trifluoromethyl-pyridin-2-ylamino)-pyrimidin-4-yl]-pyrrolidin-1-yl}-ethanone] |
| 20.7 | COc1cc(C)ccc1C(=O)N1CCCC(c2cc(Nc3cc(C)ccn3)nc(C)n2)C1 (centres unmarked) [Example 7] |
| 82.7 | FC(F)(F)c1ccnc(Nc2cc(C3CCOCC3)nc(N3CCCOCC3)n2)c1 [Example 295, [2-[1,4]Oxazepan-4-yl-6-(tetrahydro-pyran-4-yl)-pyrimidin-4-yl]-(4-trifluoromethyl-pyridin-2-yl)-amine] |
| 59 | CC(=O)N1CCC(c2cc(Nc3cc(C)ccn3)nc(N3CCCC3)n2)C1 (centres unmarked) [Example 89, 1-{3-[6-(4-Methyl-pyridin-2-ylamino)-2-pyrrolidin-1-yl-pyrimidin-4-yl]-pyrrolidin-1-yl}-ethanone] |
| 100 | COc1ccnc(Nc2cc(C3CCN(C(C)=O)C3)nc(N3CCCC3C)n2)c1 (centres unmarked) [Example 129, 1-{3-[6-(4-Methoxy-pyridin-2-ylamino)-2-(2-methyl-pyrrolidin-1-yl)-pyrimidin-4-yl]-pyrrolidin-1-yl}-ethanone] |
| > 2100 | Cc1ccnc(Nc2cc(C3CCCN(Cc4cn(C)nc4C)C3)nc(C)n2)c1 (centres unmarked) [Example 38, {6-[1-(1,3-Dimethyl-1H-pyrazol-4-ylmethyl)-piperidin-3-yl]-2-methyl-pyrimidin-4-yl}-(4-methyl-pyridin-2-yl)-amine] |
| 37 | N#CCC(=O)N1CCCC(c2cc(Nc3cc(C(F)(F)F)ccn3)nc(C3CC3)n2)C1 (centres unmarked) [Example 173, 3-{3-[2-Cyclopropyl-6-(4-trifluoromethyl-pyridin-2-ylamino)-pyrimidin-4-yl]-piperidin-1-yl}-3-oxo-propionitrile] |
| 795 | Cc1nc(Nc2cc(C(N)=O)ccn2)cc(C2CCCN(C(=O)c3ccccc3)C2)n1 (centres unmarked) [Example 8] |
| 20.5 | Cc1ccnc(Nc2cc(C3CCNCC3)nc(N3CCCC3)n2)c1 [Example 24, (4-Methyl-pyridin-2-yl)-(6-piperidin-4-yl-2-pyrrolidin-1-yl-pyrimidin-4-yl)-amine] |
| 101 | CC(=O)N1CC(c2cc(Nc3cc(C(F)(F)F)ccn3)nc(C3CC3)n2)C1 [Example 356, 1-{3-[2-Cyclopropyl-6-(4-trifluoromethyl-pyridin-2-ylamino)-pyrimidin-4-yl]-azetidin-1-yl}-ethanone] |
